{"source": "patent US20230346743A1", "about": "“COMBINATION CANCER THERAPIES” (The Board of Regents of the University of Oklahoma, priority 2018, published 2023)", "tested_on": "p53", "assay": "p53 cellular localization (immunofluorescence, Western blots of fractions) in ovarian cancer cell lines", "type": "cell-based, human", "settings": "A2780 and OV90 ovarian cancer cell lines", "protocol": "Cytoplasmic and nuclear protein fractions were isolated from cultures using NE-PER Nuclear and Cytoplasmic Extraction Reagents (ThermoFisher, Waltham, MA, USA) and the Mitochondria/Cytosol Fractionation Kit (ThermoFisher, Waltham, MA, USA) and protein concentrations determined with BCA reagent (ThermoFisher, Waltham, MA, USA).\nProteins were extracted from cell cultures using M-PER mammalian protein extraction reagent (ThermoFisher, Waltham, MA, USA) and volumes corresponding to 30 µg determined with BCA reagent (ThermoFisher, Waltham, MA, USA) were electrophoresed into a SDS-PAGE gel and transferred to PVDF membranes. Membranes were blocked (5% dry skim milk powder in TBST buffer) for at least 1 h or overnight, washed thrice with TBST and then incubated with primary antibody: p53 DO-1, β-actin, histone H3, GAPDH (Santa Cruz Biotechnology, Dallas, TX, USA) and mortalin, Tom20, V5 tag antibodies, p21, PARP, SLC7A11, caspase 3 (Cell Signaling Technology, Danvers, MA, USA) for at least 1 h or overnight. After three washes, membranes were incubated with anti-mouse HRP conjugated (Santa Cruz Biotechnology, Dallas, TX, USA) or anti-Rabbit HRP conjugated (Cell Signaling Technology, Danvers, MA, USA) for 40 min. Membranes then were washed and developed with ECL reagents (BioRad, Hercules, CA, USA). Bands were imaged and quantified (ChemiDoc imaging system with Image Lab Software/BioRad). […]"}
{"smiles": "CC1(C)CC(C)(C)c2cc(NC(=S)Nc3ccc([N+](=O)[O-])cc3)ccc2S1", "note": "[SHetA2]", "values": [{"measurement": "p53 in nuclei (immunofluorescent imaging)", "value": "dose-dependent elevation of both wild type and mutant p53 in nuclei"}]}
